The values below come from EP0604653A1, “COMPLEX OF COMPOUND HAVING CHALCONE SKELETON” (TAISHO PHARMACEUTICAL CO. LTD, priority 1991, dated 1993).

Structures are written as SMILES.

In data set [1] the test system is Prostaglandin (PG) Metabolic Enzyme. In words: PG metabolic enzyme activity in excised gastric mucosa after dosing (decomposition of PGE₁ as index). The data set is classed as in vivo. The settings on record: rats, i.d., dose of SU-740 31.4 mg/kg (Complex 200.0 mg/kg). How it is done: The test was carried out in accordance with the method described in M. Muramatsu et al., Biochemical Pharmacology, Vol. 33(16), p. 2629 (1984). The sample dispersed in a 1 % gum arabic suspension was intraduodenally administered to rats having been deprived of food for 24 hours so as to make a dose of SU-740 become 31.4 mg/kg. Two hours later, the gastric mucosa was excised, and a PG metabolic enzyme was extracted therefrom and analyzed with a spectrophotometer. The effect was examined taking decomposition of PGE₁ as an index.

Data set [2] relates to PGE₂ Content in Rat Gastric Mucosa. The data set is described as follows: PGE₂ content in gastric mucosa after dosing (radioimmunoassay). Type of data set: in vivo. The settings on record: rats, i.d., dose of SU-740 31.4 mg/kg (Complex 200.0 mg/kg). How it is done:
The test was carried out in accordance with the method described in M. Muramatsu et al., Life Science, Vol. 41, p. 315 (1987). The sample dispersed in a 1 % gum arabic suspension was intraduodenally administered to rats having been deprived of food for 24 hours so as to make a dose of SU -740 become 31.4 mg/kg. After 24 hours from the administration, the gastric mucosa was excised under anesthesia with ether and 2 mℓ of a 20 µM anhydrous solution of Indomethacin was added thereto, followed by homogenization. After allowing to stand for 1 hour, the homogenate was subjected to centrifugation at 3000 rpm for 10 minutes and the supernatant liquor (PG mixture) was lyophilized. The resulting PG mixture was suspended in distilled water, and extracted with methanol by means of a column (vac elute). Then the extract was lyophilized, and subjected to measurement by means of a radioimmunoassay kit.

Data set [3] concerns Histamine-Induced Ulceration. The data set is described as follows: Histamine-induced ulceration, area of lesions. The data set is classed as in vivo. The following applies: rats, i.d., dose of SU-740 31.4 mg/kg (Complex 200.0 mg/kg); histamine 300 mg/kg i.p. 3 hours later, lesion area 4 hours thereafter. Here is the method: The test was carried out in accordance with the method described in M. Muramatsu et al., Arzeneim. Forsch., Vol. 40(I)1, p. 49 (1990). The sample dispersed in a 1 % gum arabic suspension was intraduodenally administrated to rats having been deprived of food for 24 hours so as to make a dose of SU-740 become 31.4 mg/kg. Three hours later, 300 mg/kg of histamine was intraperitoneally administered, and 4 hours thereafter the abdomen was opened, and the area of lesions was measured to evaluate the inhibitory effect on mucosal lesions.

Data set [4] is described as follows: Test of absorbability after oral capsule administration (cross-over, Latin square). The data set is classed as in vivo. The following applies: beagles, dose of SU-740 100 mg/kg, FIG. 5. How it is done:
The test was conducted by a cross-over testing method according to a Latin square method using 15 beagles divided into three groups each consisting of 5 test animals. Each sample was put in a capsule and orally given to the animal so as to make a dose of SU-740 become 100 mg/kg.

The subject of the next data set is Gastric Acid Secretion. The data set is described as follows: Gastric acid secretion in conscious dog with chronic fistula, stimulated by 2-deoxy-D-glucose. Type of data set: in vivo. The following applies: p.o., table doses: SU-740 200.0 mg/kg, Complex 200.0 (31.4 as SU-740) mg/kg. Here is the method:
The test was carried out in accordance with the method described in Gastroenterology, Vol. 85, p. 900 (1983). A dog to which a fistula had been chronically fitted was deprived of food for 20 hours. […] One hour later, 300 mg/kg of 2-deoxy-D-glucose was intravenously injected. Two hours from the injection, the gastric acid secretion was measured.

Data set [5] concerns Hydrochloric Acid-Induced Lesion. In words: Hydrochloric acid-induced gastric mucosal lesion, length of ulcerations. The data set is classed as in vivo, rat. The settings on record: rats, intraduodenal, dose of SU-740 10, 35 or 60 mg/kg, 0.6 N hydrochloric acid 1 hour later; FIG. 6. Here is the method:
Seventy-two rats divided into 9 groups each consisting of 8 animals were used. A 0.2 mℓ/100 g of the sample dispersed in a 5 % gum arabic suspension was intraduodenally administered to a rat so as to make a dose of SU-740 become 10 mg, 35 mg or 60 mg per kg-body weight. β-Cyclodextrin was similarly administered at a dose corresponding to the SU-740 content in the complex obtained in Example 2. On hour later, 1 mℓ of 0.6 N hydrochloric acid was administered, and 1 hour thereafter the abdomen was opened, and the length of the ulcerations was measured to evaluate the inhibitory effect on mucosal lesions.

For `CC(C)=CCOc1ccc(C(=O)/C=C/c2ccc(C(C)(C)C)cc2)c(OCC(=O)O)c1` [SU-740, 4-t-butyl-2'-carboxymethoxy-4'-(3-methyl-2-butenyloxy)chalcone], the “% of Control” value in data set [1] (PG metabolic enzyme activity) is on record as 81.3%. The “PG Metabolic Enzyme Activity (nmol/mg protein/min)” value in data set [1] (gastric mucosa excised two hours later) turned out to be 0.61±0.05 nmol/mg protein/min. Further, the activity at 31.4 mg/kg in data set [2] (Rattus norvegicus, intraduodenal, PGE₂ content, read-out: % of Control) turned out to be 396%. The “PGE₂ Content (pg/g wet weight)” value in data set [2] (gastric mucosa 24 hours after administration) is reported as 309.1±57.0 pg/g wet weight. Besides, the “Inhibitory Ratio (%)” value in data set [3] is 66.7%; in the data set on Gastric Acid Secretion (gastric acid secretion), 20.9%. Further, the absorbability entry in data set [4] is reported as “scarcely absorbed”. The “Gastric Acid Secretion (mEq/1 hr)” value in the data set with Gastric Acid Secretion (2-deoxy-D-glucose 300 mg/kg i.v. one hour later) was found to be 12.1±2.1 mEq/1 hr.
As to `OC[C@H]1O[C@@H]2O[C@H]3[C@H](O)[C@@H](O)[C@@H](O[C@H]4[C@H](O)[C@@H](O)[C@@H](O[C@H]5[C@H](O)[C@@H](O)[C@@H](O[C@H]6[C@H](O)[C@@H](O)[C@@H](O[C@H]7[C@H](O)[C@@H](O)[C@@H](O[C@H]8[C@H](O)[C@@H](O)[C@@H](O[C@H]1[C@H](O)[C@H]2O)O[C@@H]8CO)O[C@@H]7CO)O[C@@H]6CO)O[C@@H]5CO)O[C@@H]4CO)O[C@@H]3CO` [β-Cyclodextrin, β-cyclodextrin], the “inhibitory effect on mucosal lesions” value in data set [5] is “little effect”.
